{
  "source": "the supplement of paper PMC11208160",
  "data": [
    {"experiment": "recombinant barcode read abundance after kanamycin selection (control-corrected) (log10(CPM+1)); higher = more efficient recombination; sequences stand for … in AGTGCAGAGAAAATCGGCCAGTTTTCTCTGCCTGCAGTCCGCATGCCGT…AGATTTATGCAGCGGACTGCCTTTCTCCCAAAGTGATAAACCGGACAGTATCATGGACCGGTTTTCCCGGTAATCCGTATTTGCAAGGTTGGTTTCACT; site = the 11-nt target", "summary_of_the_method": "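Pooled oligos, each joining a target to an IS621 bridge RNA target-binding loop, were cloned and co-electroporated with a donor plasmid into E. coli. Selective plates carried chloramphenicol/ampicillin/kanamycin and 0.1 mM IPTG, while chloramphenicol/ampicillin LB agar served as control, with two replicates of each. Recombination efficiency rests on averaged, control-corrected counts per million of barcodes at recombinant junctions, shown as log10(CPM+1).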", "values": [
      {"sequence": "GTCTCAACTTGGGTTCTAACCTGTTGCCT (site TTCTGAACTAG)", "recombinant barcode read abundance (log10)": 0.0305},
      {"sequence": "GTCTCATCTTGGGTTCTAACCTGTTGCAT (site AGTATCCCTCG)", "recombinant barcode read abundance (log10)": 0.0153},
      {"sequence": "GTCTCATCTTGGGTTCTAACCTGTTGCAT (site GTCTCATCTAT)", "recombinant barcode read abundance (log10)": 0.362},
      {"sequence": "GTCTCTACTTGGGTTCTAACCTGTTGCGG (site GTCGCTACTCC)", "recombinant barcode read abundance (log10)": 0},
      {"sequence": "GTCTCTACTTGGGTTCTAACCTGTTGCGG (site GTCTCTACTCC)", "recombinant barcode read abundance (log10)": 0.00855},
      {"sequence": "GTCTCTCCTTGGGTTCTAACCTGTTGCAG (site AAGGGCTCTAA)", "recombinant barcode read abundance (log10)": 0.0245},
      {"sequence": "GTCTCTCCTTGGGTTCTAACCTGTTGCAG (site GTCTCTCCTCT)", "recombinant barcode read abundance (log10)": 0.0635},
      {"sequence": "GTCTCTCCTTGGGTTCTAACCTGTTGCCG (site GTCTCTCCTCG)", "recombinant barcode read abundance (log10)": 0.0734},
      {"sequence": "GTCTCTCCTTGGGTTCTAACCTGTTGCCG (site GTGTCTCCTCG)", "recombinant barcode read abundance (log10)": 0.0724},
      {"sequence": "GTCTGATCTTGGGTTCTAACCTGTTGCCT (site GTCTAATCTAG)", "recombinant barcode read abundance (log10)": 0.0854},
      {"sequence": "GTCTGATCTTGGGTTCTAACCTGTTGCCT (site GTCTCATCTAG)", "recombinant barcode read abundance (log10)": 0.113},
      {"sequence": "GTCTGATCTTGGGTTCTAACCTGTTGCCT (site GTCTGATCTAG)", "recombinant barcode read abundance (log10)": 0.97},
      {"sequence": "GTCTGATCTTGGGTTCTAACCTGTTGCCT (site GTCTTATCTAG)", "recombinant barcode read abundance (log10)": 0.186},
      {"sequence": "GTCTGCCCTTGGGTTCTAACCTGTTGCCT (site GACTGCCCTAG)", "recombinant barcode read abundance (log10)": 0.181},
      {"sequence": "GTCTGCCCTTGGGTTCTAACCTGTTGCCT (site GCCTGCCCTAG)", "recombinant barcode read abundance (log10)": 0.191},
      {"sequence": "GTCTGCCCTTGGGTTCTAACCTGTTGCCT (site GGCTGCCCTAG)", "recombinant barcode read abundance (log10)": 0.239},
      {"sequence": "GTCTGCCCTTGGGTTCTAACCTGTTGCCT (site GTCTGCCCTAG)", "recombinant barcode read abundance (log10)": 1.73},
      {"sequence": "GTCTTAACTTGGGTTCTAACCTGTTGCCG (site GTCTTAACTCG)", "recombinant barcode read abundance (log10)": 0.338},
      {"sequence": "GTCTTAACTTGGGTTCTAACCTGTTGCCG (site GTCTTGACTTG)", "recombinant barcode read abundance (log10)": 0.0525},
      {"sequence": "GTGAACTCTTGGGTTCTAACCTGTTGCCT (site GTAAACTCTAG)", "recombinant barcode read abundance (log10)": 1.56},
      {"sequence": "GTGAACTCTTGGGTTCTAACCTGTTGCCT (site GTCAACTCTAG)", "recombinant barcode read abundance (log10)": 0.0453},
      {"sequence": "GTGAACTCTTGGGTTCTAACCTGTTGCCT (site GTGAACTCTAG)", "recombinant barcode read abundance (log10)": 1.85},
      {"sequence": "GTGAACTCTTGGGTTCTAACCTGTTGCCT (site GTTAACTCTAG)", "recombinant barcode read abundance (log10)": 0.542},
      {"sequence": "GTGAGATCTTGGGTTCTAACCTGTTGCCT (site GTGAGATCTAG)", "recombinant barcode read abundance (log10)": 1.06},
      {"sequence": "GTGAGATCTTGGGTTCTAACCTGTTGCCT (site GTGGAATCTAG)", "recombinant barcode read abundance (log10)": 0.079},
      {"sequence": "GTGAGCCCTTGGGTTCTAACCTGTTGCCG (site GTGAGCCCTCG)", "recombinant barcode read abundance (log10)": 1.01},
      {"sequence": "GTGAGCCCTTGGGTTCTAACCTGTTGCCG (site GTGCGCTCTCG)", "recombinant barcode read abundance (log10)": 0.0474},
      {"sequence": "GTGAGTCCTTGGGTTCTAACCTGTTGCGG (site GTAAGTCCTTC)", "recombinant barcode read abundance (log10)": 0.24},
      {"sequence": "GTGAGTCCTTGGGTTCTAACCTGTTGCGG (site GTGAGTCCTCC)", "recombinant barcode read abundance (log10)": 2.42},
      {"sequence": "GTGATGTCTTGGGTTCTAACCTGTTGCCT (site GAGATGTCTAG)", "recombinant barcode read abundance (log10)": 0.701},
      {"sequence": "GTGATGTCTTGGGTTCTAACCTGTTGCCT (site GCGATGTCTAG)", "recombinant barcode read abundance (log10)": 0.321},
      {"sequence": "GTGATGTCTTGGGTTCTAACCTGTTGCCT (site GGGATGTCTAG)", "recombinant barcode read abundance (log10)": 0.279},
      {"sequence": "GTGATGTCTTGGGTTCTAACCTGTTGCCT (site GTGATGTCTAG)", "recombinant barcode read abundance (log10)": 2.17},
      {"sequence": "GTGCACTCTTGGGTTCTAACCTGTTGCGG (site GTGCACACTCC)", "recombinant barcode read abundance (log10)": 0},
      {"sequence": "GTGCACTCTTGGGTTCTAACCTGTTGCGG (site GTGCACTCTCC)", "recombinant barcode read abundance (log10)": 2.13},
      {"sequence": "GTGCTAACTTGGGTTCTAACCTGTTGCCA (site ATGCTAACTAG)", "recombinant barcode read abundance (log10)": 0.0637},
      {"sequence": "GTGCTAACTTGGGTTCTAACCTGTTGCCA (site GTGCTAACTTG)", "recombinant barcode read abundance (log10)": 0.626},
      {"sequence": "GTGGAAGCTTGGGTTCTAACCTGTTGCCA (site GTGAAAGCTTG)", "recombinant barcode read abundance (log10)": 0.158},
      {"sequence": "GTGGAAGCTTGGGTTCTAACCTGTTGCCA (site GTGGAAGCTTG)", "recombinant barcode read abundance (log10)": 0.238},
      {"sequence": "GTGGAGTCTTGGGTTCTAACCTGTTGCCT (site GTAGAGTCTAA)", "recombinant barcode read abundance (log10)": 0.577},
      {"sequence": "GTGGAGTCTTGGGTTCTAACCTGTTGCCT (site GTGGAGTCTAG)", "recombinant barcode read abundance (log10)": 2.5},
      {"sequence": "GTGGGAACTTGGGTTCTAACCTGTTGCTT (site GTGGGAACTAA)", "recombinant barcode read abundance (log10)": 1.97},
      {"sequence": "GTGGGAACTTGGGTTCTAACCTGTTGCTT (site TCCTATCCTTC)", "recombinant barcode read abundance (log10)": 0.0252}
    ]}
  ]
}
